Measured values taken from patent US6642264B1, “Thiazolobenzoimidazole derivatives” (Yamanouchi Pharmaceutical Co., Ltd., priority 1999, dated 2003).
Counter-ions that a name gives are not always drawn.

What was measured:
[1] = target: T1, mGluR1 α (Rattus norvegicus, UniProt P23385); test: phosphatidylinositol (PI) hydrolysis system using mGluR1 α expression cells; type: cell-based; conditions: read-out: IC50, inhibition of the reaction of glutamic acid in PI hydrolysis system
T1 construct: expressed in transfected cells

[2] = target: T2, mGluR1 (Rattus norvegicus, UniProt P23385); test: mGluR1 binding test with tritium-labeled ligand on rat cerebellum P2 membrane fraction
T2 construct: from tissue; host or cells: rat (Wistar) cerebellum P2 membrane fraction
Procedure: Rats (Wistar, males, 9 to 12 weeks of age) were decapitated to excise cerebella. After weight measurement, they were homogenized in 7 to 10 volumes of 0.32 M sucrose solution. After 15 minutes of centrifugation at 900×g, the supernatant was preserved in a container (in ice). The precipitate was again homogenized in 0.32 M sucrose solution of the same volume of the first time and centrifuged at 900×g for 15 minutes. The supernatant obtained this time was combined with the previously obtained supernatant and centrifuged at 15,000×g for 20 minutes. The precipitate was homogenized in 5 mM Tris-HCl, pH 7.4, and centrifuged at 15,000×g for 15 minutes. This step was repeated again. The precipitate was homogenized in 50 mM Tris-HCl, pH 7.4, and centrifuged at 15,000×g for 15 minutes. The precipitate was homogenized in an appropriate amount of 50 mM Tris-HCl, pH 7.4, subdivided into small portions and then preserved at −80° C.
The binding test was carried out by the following modified method of Thomsen et al.
As the assay buffer, 50 mM Tris-HCl, 2.5 mM CaCl2, pH 7.4, was used. […] Quantity of the radioactivity was measured using a liquid scintillation counter. […]

T2 sequence (P23385 19-1199): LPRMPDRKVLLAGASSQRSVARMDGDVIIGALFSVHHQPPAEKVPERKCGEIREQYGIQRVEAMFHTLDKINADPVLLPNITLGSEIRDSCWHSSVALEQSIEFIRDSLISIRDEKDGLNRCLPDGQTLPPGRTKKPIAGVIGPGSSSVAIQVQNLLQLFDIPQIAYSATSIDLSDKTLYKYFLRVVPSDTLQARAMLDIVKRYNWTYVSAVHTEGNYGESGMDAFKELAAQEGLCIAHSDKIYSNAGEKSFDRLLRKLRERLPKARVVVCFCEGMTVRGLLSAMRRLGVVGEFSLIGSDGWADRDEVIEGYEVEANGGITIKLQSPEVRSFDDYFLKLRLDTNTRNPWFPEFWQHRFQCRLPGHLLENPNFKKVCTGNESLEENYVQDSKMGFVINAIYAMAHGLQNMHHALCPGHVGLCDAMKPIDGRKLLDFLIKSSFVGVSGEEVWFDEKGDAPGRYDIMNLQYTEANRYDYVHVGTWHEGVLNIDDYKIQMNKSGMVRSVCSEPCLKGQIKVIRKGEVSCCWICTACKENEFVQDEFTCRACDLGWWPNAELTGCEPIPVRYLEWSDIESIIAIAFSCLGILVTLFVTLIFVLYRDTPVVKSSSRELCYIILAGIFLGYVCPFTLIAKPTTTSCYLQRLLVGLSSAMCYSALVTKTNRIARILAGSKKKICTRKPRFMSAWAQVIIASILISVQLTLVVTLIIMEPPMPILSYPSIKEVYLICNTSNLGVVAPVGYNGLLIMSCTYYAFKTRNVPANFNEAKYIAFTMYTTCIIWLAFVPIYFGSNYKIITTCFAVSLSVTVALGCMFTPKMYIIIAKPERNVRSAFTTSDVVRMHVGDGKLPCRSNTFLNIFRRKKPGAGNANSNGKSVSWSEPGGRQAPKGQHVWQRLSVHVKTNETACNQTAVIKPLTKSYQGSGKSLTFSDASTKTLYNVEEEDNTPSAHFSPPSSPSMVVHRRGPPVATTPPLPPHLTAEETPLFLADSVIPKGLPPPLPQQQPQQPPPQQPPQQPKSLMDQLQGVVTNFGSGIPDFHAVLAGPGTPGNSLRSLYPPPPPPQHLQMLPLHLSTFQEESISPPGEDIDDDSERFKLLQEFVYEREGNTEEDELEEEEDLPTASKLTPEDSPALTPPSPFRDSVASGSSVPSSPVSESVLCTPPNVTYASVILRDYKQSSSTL
T1 sequence (P23385 19-1199): as above

Row | IC50 [1] [nM] | Bmax in the saturation test [2] [pmol/mg protein] | Kd ([2]; room temperature, 45 minutes, read-out: KD value in the saturation test) [nM] | Compound
1 | 20 |  |  | CN(C(=O)c1cn2c(nc3ccc(NC(=O)CN)cc32)s1)C1CCCCC1 [Example 41, N-Cyclohexyl-6-glycylamino-N-methylthiazolo[3,2-a]benzoimidazole-2-carboxamide dihydrochloride]
2 |  | 3.9 | 47 | [3H]C([3H])([3H])N(C(=O)c1sc2nc3ccc(N)cc3n2c1C)C1CCCCC1 [[^3H]-6-Amino-N-cyclohexyl-N,3-dimethylthiazolo[3,2-a]benzoimidazole-2-carboxamide]
